The target of one data set is T1, hPPARδ (Homo sapiens, UniProt Q03181).
T1 construct: expressed in transfected cells
T1 sequence (Q03181 1-441): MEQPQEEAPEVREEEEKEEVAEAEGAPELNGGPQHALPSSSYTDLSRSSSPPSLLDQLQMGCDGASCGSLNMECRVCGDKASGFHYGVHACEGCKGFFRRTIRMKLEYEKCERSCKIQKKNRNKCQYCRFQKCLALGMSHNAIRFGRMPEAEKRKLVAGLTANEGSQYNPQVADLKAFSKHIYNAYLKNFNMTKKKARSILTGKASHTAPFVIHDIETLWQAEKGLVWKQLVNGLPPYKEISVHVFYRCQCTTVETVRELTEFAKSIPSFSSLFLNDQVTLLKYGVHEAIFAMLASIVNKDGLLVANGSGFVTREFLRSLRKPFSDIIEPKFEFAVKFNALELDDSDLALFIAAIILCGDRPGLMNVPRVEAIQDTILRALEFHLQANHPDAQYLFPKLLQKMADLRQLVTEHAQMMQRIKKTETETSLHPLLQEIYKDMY
As to the kind of experiment: PPARδ luciferase reporter cell-line assay (Indigo Biosciences). The data set is classed as cell-based. Here is the method:
(§1) Luciferase assays were conducted on isogenic cell-lines engineered to overexpress either PPARδ or PPARγ with expression of the requisite luciferase reporter gene dependent upon exogenous activation of each isoform.

The next data set addresses T2, hPPARγ (Homo sapiens, UniProt P37231).
T2 construct: expressed in transfected cells
T2 sequence (P37231 1-505): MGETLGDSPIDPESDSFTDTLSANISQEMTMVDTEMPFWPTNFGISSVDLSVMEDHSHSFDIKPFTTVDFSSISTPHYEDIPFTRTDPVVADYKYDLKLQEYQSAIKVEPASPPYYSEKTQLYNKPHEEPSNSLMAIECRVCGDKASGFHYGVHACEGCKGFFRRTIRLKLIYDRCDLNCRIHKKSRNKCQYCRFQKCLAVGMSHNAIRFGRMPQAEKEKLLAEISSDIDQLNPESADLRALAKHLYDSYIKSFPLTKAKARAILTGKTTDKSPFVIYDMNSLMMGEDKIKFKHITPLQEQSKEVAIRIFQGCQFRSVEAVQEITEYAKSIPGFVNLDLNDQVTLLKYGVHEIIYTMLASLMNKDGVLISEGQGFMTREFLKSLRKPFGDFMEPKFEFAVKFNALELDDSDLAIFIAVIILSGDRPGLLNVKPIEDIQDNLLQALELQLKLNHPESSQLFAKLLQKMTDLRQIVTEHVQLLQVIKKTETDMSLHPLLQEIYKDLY
As to the kind of experiment: PPARγ luciferase reporter cell-line assay (Indigo Biosciences). The class given is cell-based. Here is the method: as §1

Data set [1] has as its system PPARα expression in 661W cells. Description: Western blot analysis of PPARα expression in 661W cells. To be noted: 24 h, 10, 50 and 100 μM. The data set is classed as cell-based, mouse. As for the experimental part:
(§2) To further confirm that this 4-benzyloxy-benzylamino chemotype acts as a PPARα agonist, we evaluated compound 10 in various biochemical assays. […] Compound 10 was also evaluated in an in vitro wound healing assay utilizing human retinal capillary endothelial cells (HRCEC).

Data set [2] deals with PPARα target genes (Acadm, Cpt1a, Fabp3, Slc25a20) in 661W cells. Description: RT-PCR of PPARα target genes in 661W cells. The class given is cell-based, mouse. Conditions: 24 h. As for the experimental part: as §2
In data set [3] the test system is retinal vascular leakage in diabetic rats. As to the kind of experiment: STZ-rat model of diabetic retinopathy, retinal permeability. The class given is in vivo. Here is the method: 7-8 week-old male Brown Norway rats were injected with streptozotocin (STZ, 55 mg/kg).
Data set [4] concerns liver phenotype of STZ diabetic rats. Description: STZ-rat model, liver phenotype and toxicity. The data set is classed as in vivo. Here is the method: 7-8 week-old male Brown Norway rats were injected with streptozotocin (STZ, 55 mg/kg). Two weeks after STZ injections, daily treatment (i.p. injection) with ASD091 or FenoFA commenced and lasted for 26-28 days. ≠P<0.05 (vs. FenoFA), *P<0.05 (vs. STZ-DMSO).

A further data set has as its target T3, hPPARα (Homo sapiens, UniProt Q07869).
T3 sequence (Q07869 1-468): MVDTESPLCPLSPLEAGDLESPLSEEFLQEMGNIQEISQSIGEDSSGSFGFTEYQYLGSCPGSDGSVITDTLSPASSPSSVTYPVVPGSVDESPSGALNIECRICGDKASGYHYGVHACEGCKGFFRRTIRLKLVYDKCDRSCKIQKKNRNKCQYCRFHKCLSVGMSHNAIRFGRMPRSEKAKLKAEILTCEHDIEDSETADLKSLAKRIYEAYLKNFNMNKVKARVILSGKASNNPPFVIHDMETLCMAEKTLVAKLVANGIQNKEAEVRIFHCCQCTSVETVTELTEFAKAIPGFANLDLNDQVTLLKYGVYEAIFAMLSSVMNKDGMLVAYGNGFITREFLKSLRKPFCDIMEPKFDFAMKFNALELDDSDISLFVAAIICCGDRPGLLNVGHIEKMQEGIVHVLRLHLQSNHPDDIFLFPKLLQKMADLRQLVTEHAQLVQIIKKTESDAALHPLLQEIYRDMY
As to the kind of experiment: PPARα luciferase cell reporter assay (Indigo Biosciences). Conditions: for Fold (5 μM): fold increase in luciferase compared to DMSO negative control / Fold (50 μM): fold increase in luciferase compared to DMSO negative control: structure IIa compounds (Table 6); for ratio of agonism compared to GW590735 (value in parentheses): hPPARα luciferase reporter cell-line; for PPAR isoform selectivity profile: hPPARα vs hPPARδ and hPPARγ luciferase cell-lines; for dose-dependent PPARα agonism in cell-based luciferase reporter assay: FIGS. 4 and 7. The class given is cell-based. An excerpt:
With the focused subset of analogs in-hand, our efforts shifted to the evaluation of these derivatives for PPARα agonism. Preliminary evaluation utilized a commercially available PPARα luciferase cell reporter assay (Indigo Biosciences). The cell-line employed is engineered to constitutively express high-levels of hPPARα. Upon interaction with an agonist, hPPARα translocates to the nucleus, binds to the PPRE, and upregulates gene transcription, including the inserted luciferase gene. Luciferase activity is detected indirectly through quantification of oxyluciferin production.

Data set [5] in a line: Solubilities of various compounds. The data set is classed as physicochemical.
Where [6] appears, read: Table 6, cellular luciferase activity, read-out: δ EC50.
Where [7] appears, read: luciferase reporter cell-line, triplicate, single experiment, read-out: hPPARδ EC50.
Where [8] appears, read: Table 6, cellular luciferase activity, read-out: γ EC50.
Where [9] appears, read: luciferase reporter cell-line, triplicate, single experiment, read-out: hPPARγ EC50.
Where [10] appears, read: STZ diabetic Brown Norway rats, daily i.p. injection 26-28 days.
Setting [11] is: inferred from efficacy after systemic administration.
The mark [12] stands for this setting: Table 6, cellular luciferase activity, read-out: α EC50.
[13] abbreviates: luciferase reporter cell-line, triplicate, single experiment, read-out: hPPARα EC50.
The mark [14] stands for this setting: PBS, pH 7.4, aqueous buffer, read-out: PBS Solubility pH 7.4.
The mark [15] stands for this setting: water, H2O, read-out: H2O Solubility.

Experimental findings from patent publication US12319708B2, “Agonists of peroxisome proliferator-activated receptor alpha (PPARα) and methods of use” (The Board of Regents of the University of Oklahoma, priority 2018, dated 2025) are described below.

In brackets after ≈: the same amount, converted by molar mass. Read-outs that look alike come from different tables or passages of the source.

Consider `COc1ccc(COc2ccc(CNc3cccc(C(=O)O)c3)cc2)cc1` [Compound 91], for which the half-maximal effective concentration (EC50) on hPPARδ (setting [6]), at hPPARδ (setting [7]), at hPPARγ (setting [8]) and on hPPARγ (setting [9]) was more than 100 µM each time. The “expression of PPARα (Western blot, densitometry)” value in data set [1] is given as “induced the expression of PPARα in a dose-dependent manner”. In addition, in data set [2], the “expression of PPARα target genes (Acadm, Cpt1a, Fabp3, Slc25a20)” value is “induces the expression of various PPARα target genes”. Further, the retinal vascular leakage entry in data set [3] (setting [10]) is recorded as “reduces retinal vascular leakage in diabetic rats”. The “bioavailability” value in data set [3] (setting [11]) is recorded as “is bioavailable”. Moreover, the blood-ocular barrier crossing entry in data set [3] (setting [11]) is “crosses blood-ocular barrier and reaches the retina”. For the same compound, in data set [4] (setting [10]), the signs of hepatomegaly entry was “seems to lack signs of hepatomegaly”. The observable toxicity entry in data set [4] (daily injection for one-month) is given as “no observable toxicity”.
In the case of `COc1ccc(COc2ccc(CNc3cccc(C(=O)O)c3)c(OCc3ccc(OC)cc3)c2)cc1` [Compound 92], the “Fold (5 μM): fold increase in luciferase compared to DMSO negative control” value (“Fold (5 μM): fold increase in luciferase” for short) at hPPARα was 8 fold. Besides, the “Fold (50 μM): fold increase in luciferase compared to DMSO negative control” value (from here on “Fold (50 μM): fold increase”) at hPPARα is given as 21 fold. The EC50 on hPPARα (setting [12]) is 5.1 µM; at hPPARα (setting [13]), 5.1 µM; at hPPARδ (setting [6]), more than 100 µM; on hPPARδ (setting [7]), more than 100 µM; on hPPARγ (setting [8]), more than 100 µM; at hPPARγ (setting [9]), more than 100 µM. The “ratio of agonism compared to GW590735 (value in parentheses)” value on hPPARα turned out to be 1.1. In addition, the “PPAR isoform selectivity profile” value on hPPARα was “maintains the selectivity”.
On to `COc1ccc(COc2ccc(CNc3cccc(OC(C)(C)C(=O)O)c3)cc2)cc1` [Compound 114], for which the EC50 at hPPARδ (setting [6]) was determined as 18.3 µM; on hPPARδ (setting [7]), 38.6 µM; at hPPARγ (setting [8]) it was 38.6 µM; at hPPARγ (setting [9]), 18.3 µM.
Turning to `COc1ccc(COc2ccc(CNc3cccc(OC(C)(C)C(=O)O)c3)c(OCc3ccc(OC)cc3)c2)cc1` [Compound 115], at hPPARα, the “Fold (5 μM): fold increase in luciferase” value was determined as 1 fold. In addition, the “Fold (50 μM): fold increase” value at hPPARα came to 41 fold. Moreover, on hPPARα (28 compared with 22), the “improvement in potency on adding third B-ring substituent” value is on record as 10 fold. For the same compound, the EC50 at hPPARα (setting [12]) turned out to be 2.1 µM; at hPPARα (setting [13]), 2.1 µM; at hPPARδ (setting [6]), 5.6 µM; at hPPARδ (setting [7]), 8.9 µM; at hPPARγ (setting [8]) it was 8.9 µM; on hPPARγ (setting [9]), 5.6 µM. Further, the “ratio of agonism compared to GW590735 (value in parentheses)” value at hPPARα is listed as 1.4. Further, the “PPAR isoform selectivity profile” value at hPPARα is reported as “pan-agonist profile was maintained”.
Turning to `O=C(O)c1cccc(NCc2ccc(OCc3ccc(I)cc3)cc2)c1` [Compound 189], on hPPARα, the “Fold (5 μM): fold increase in luciferase” value is listed as 39 fold and the “Fold (50 μM): fold increase” value turned out to be 37 fold. Also, the EC50 on hPPARα (setting [12]) is 1.2 µM.
Turning to `Cc1cc(CNc2cccc(C(=O)O)c2)ccc1OCc1ccc(F)cc1` [Compound 190], the figures for the “dose-dependent PPARα agonism in cell-based luciferase reporter assay” value on hPPARα and at hPPARα (listed as A190) were “exhibits dose-dependent activity” and “dose-dependent agonism of PPARα”, respectively. The EC50 on hPPARα (setting [12]) was 0.03 µM; on hPPARα (text b235, read-out: EC50 (PPARα)), 0.037 µM; on hPPARδ (setting [6]), more than 100 µM; at hPPARγ (setting [8]), more than 100 µM.
With `N#Cc1ccc(COc2ccc(CNc3cccc(C(=O)O)c3)cc2)cc1` [Compound 191], at hPPARα, the “Fold (5 μM): fold increase in luciferase” value is given as 42 fold and the “Fold (50 μM): fold increase” value is listed as 61 fold.
As for `O=C(O)c1cccc(NCc2ccc(OCc3ccc(Br)cc3)cc2)c1` [Compound 192], at hPPARα, the “Fold (5 μM): fold increase in luciferase” value is 53 fold and the “Fold (50 μM): fold increase” value was found to be 58 fold. Moreover, at hPPARα (setting [12]), the EC50 came to 0.8 µM.
The like results for `O=C(O)c1cccc(NCc2ccc(OCc3cccc(F)c3)cc2)c1` [Compound 193] were, in that order, 73 fold, 56 fold and 1.1 µM.
For the compound `O=C(O)c1cccc(NCc2ccc(OCc3ccc(F)cc3F)cc2)c1` [Compound 194], at hPPARα, a half-maximal effect (EC50) was put at 0.4 µM, the “Fold (5 μM): fold increase in luciferase” value came to 51 fold and the “Fold (50 μM): fold increase” value is listed as 49 fold.
Consider `O=C(O)c1cccc(NCc2ccc(OCc3ccccc3F)cc2)c1` [Compound 195], for which, at hPPARα, the “Fold (5 μM): fold increase in luciferase” value was determined as 34 fold and the “Fold (50 μM): fold increase” value came to 45 fold.
Take `Cc1cc(CNc2cccc(C(=O)O)c2)ccc1OCc1cc(F)cc(F)c1` [Compound 198]: at hPPARα, the “Fold (5 μM): fold increase in luciferase” value is recorded as 88 fold and the “Fold (50 μM): fold increase” value was 84 fold.
The like results for `Cc1cc(CN(C)c2cccc(C(=O)O)c2)ccc1OCc1ccc(F)cc1` [Compound 199] were, in that order, 102 fold and 131 fold.
For the compound `CC(C)(Oc1ccc(C(=O)c2ccc(Cl)cc2)cc1)C(=O)O` [Fenofibric acid, fenofibric acid, reference compound], the solubility in data set [5] (setting [14]) is 278 µM (≈ 88.6 µg/mL); in data set [5] (setting [15]) it was 93 µM (≈ 29.6 µg/mL).
As for `Cc1cc(CNc2cccc(C(=O)OCOP(=O)([O-])O)c2)ccc1OCc1ccc(F)cc1.[Na+]` [ZH-2021-162], the solubility in data set [5] (setting [14]) is 292 µM; in data set [5] (setting [15]), 318 µM.
With `Cc1cc(CNc2cccc(C(=O)OCOP(=O)(O)O)c2)ccc1OCc1ccc(F)cc1` [ZH-2021-164], the solubility turned out to be 316 µM (≈ 150 µg/mL) in data set [5] (setting [14]) and 284 µM (≈ 135 µg/mL) in data set [5] (setting [15]).
